Where two headings read alike, the source gives them in different places.
How the values were obtained:
Format in all cases: biochemical
[1] = target: T1, PKC isoenzyme δ (Homo sapiens, UniProt Q05655); test: Protein kinase C inhibition assay, PKC isoenzyme δ
T1 construct: made in house; host or cells: baculovirus-insect cell expression system
Experimental: (§1) A protein kinase C (PKC) assay is designed to duplicate the in vivo conditions required for protein kinase C function. Therefore, pH, salt and cofactor concentrations are similar to physiologic levels. Either lysine rich histone H1 (H1) or Myelin basic protein (Mbp) are used in the assay as the phosphorylation acceptor-protein because they are readily available and serve as good substrates for protein kinase C. Enzyme was prepared from baculovirus-insect cell expression systems.
(§2) In the screening assay, phosphatidylserine (PS) and DAG were co-sonicated to form unilamellar and multilamellar vesicles. The concentration of lipids in the assay were suboptimal to maximize the detection potential of the assay for inhibitors or activators. Potential effector compounds were added to the assay in dimethylsulfoxide at four concentrations to give final inhibitor concentrations of 1, 10, 50, and 150 μM, respectively.
(§3) The assay was started with the addition of enzyme and stopped after 10 min by the addition of 25% trichloroacetic acid (TCA) and 1.0 mg/ml bovine serum albumin (BSA). The radioactive histone product was retained and washed on glass fiber filters that allow the unreacted P-ATP to pass through. The amount of phosphorylation was determined by measuring radioactivity with a scintillation counter. Controls were included in every assay to measure background activity in the absence of enzyme, activity in the absence of lipids, and the maximum enzyme activity with saturating levels of the activator lipids.
(§4) Results of the protein kinase C assay are shown in Table 4 in columns labeled α, βII, γ, δ, ε, and .zeta. which represent various PKC isoenzymes. Results are show as IC50, which is the concentration of test compound needed to inhibit 50% of the protein kinase C activity in controls.

[2] = target: T2, PKC isoenzyme α (Homo sapiens, UniProt P17252); test: Protein kinase C inhibition assay, PKC isoenzyme α
T2 construct: made in house; host or cells: baculovirus-insect cell expression system
Experimental: as §1, §2, §3, §4

[3] = target: T3, PKC isoenzyme βII (Homo sapiens, UniProt P05771); test: Protein kinase C inhibition assay, PKC isoenzyme βII
T3 construct: made in house; host or cells: baculovirus-insect cell expression system
Experimental: as §1, §2, §3, §4

[4] = target: T4, PKC isoenzyme ζ (Homo sapiens, UniProt Q05513); test: Protein kinase C inhibition assay, PKC isoenzyme ζ
T4 construct: made in house; host or cells: baculovirus-insect cell expression system
T4 sequence (Q05513 1-592): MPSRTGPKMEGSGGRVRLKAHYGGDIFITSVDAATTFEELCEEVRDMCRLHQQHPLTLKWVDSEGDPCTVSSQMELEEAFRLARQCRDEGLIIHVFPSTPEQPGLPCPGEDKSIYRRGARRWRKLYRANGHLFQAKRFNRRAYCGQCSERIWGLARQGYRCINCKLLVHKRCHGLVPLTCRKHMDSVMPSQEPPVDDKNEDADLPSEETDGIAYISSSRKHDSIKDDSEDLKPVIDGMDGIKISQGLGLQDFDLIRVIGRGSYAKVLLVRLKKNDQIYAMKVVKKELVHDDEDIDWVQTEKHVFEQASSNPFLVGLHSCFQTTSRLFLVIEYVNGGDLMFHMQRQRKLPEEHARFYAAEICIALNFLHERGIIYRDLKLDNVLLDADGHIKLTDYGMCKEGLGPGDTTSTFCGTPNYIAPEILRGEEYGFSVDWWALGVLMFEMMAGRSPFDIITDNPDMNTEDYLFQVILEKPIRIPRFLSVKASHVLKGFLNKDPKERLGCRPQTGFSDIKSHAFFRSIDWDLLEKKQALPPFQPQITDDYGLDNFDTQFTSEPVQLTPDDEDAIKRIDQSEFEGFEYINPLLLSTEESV
Experimental: as §1, §2, §3, §4

T1 sequence (Q05655 whole entry): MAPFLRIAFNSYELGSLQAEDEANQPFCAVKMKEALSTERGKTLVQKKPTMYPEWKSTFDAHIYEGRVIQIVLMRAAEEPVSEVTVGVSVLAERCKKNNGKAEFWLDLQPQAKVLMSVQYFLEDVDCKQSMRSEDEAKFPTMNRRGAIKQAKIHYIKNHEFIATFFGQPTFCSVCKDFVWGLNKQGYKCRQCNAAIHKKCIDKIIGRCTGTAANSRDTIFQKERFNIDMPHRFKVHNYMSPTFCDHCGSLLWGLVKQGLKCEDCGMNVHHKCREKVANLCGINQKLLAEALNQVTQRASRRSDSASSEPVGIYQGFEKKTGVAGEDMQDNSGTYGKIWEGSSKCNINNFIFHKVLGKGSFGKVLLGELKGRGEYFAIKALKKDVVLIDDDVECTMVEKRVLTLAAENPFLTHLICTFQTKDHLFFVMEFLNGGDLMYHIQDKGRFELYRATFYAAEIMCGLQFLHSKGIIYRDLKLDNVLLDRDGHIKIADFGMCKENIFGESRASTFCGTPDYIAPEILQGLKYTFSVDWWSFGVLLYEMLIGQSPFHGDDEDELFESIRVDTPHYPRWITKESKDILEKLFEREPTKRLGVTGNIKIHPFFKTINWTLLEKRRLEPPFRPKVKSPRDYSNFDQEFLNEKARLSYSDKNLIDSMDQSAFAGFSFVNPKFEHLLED
T3 sequence (P05771 1-673 isoform P05771-2): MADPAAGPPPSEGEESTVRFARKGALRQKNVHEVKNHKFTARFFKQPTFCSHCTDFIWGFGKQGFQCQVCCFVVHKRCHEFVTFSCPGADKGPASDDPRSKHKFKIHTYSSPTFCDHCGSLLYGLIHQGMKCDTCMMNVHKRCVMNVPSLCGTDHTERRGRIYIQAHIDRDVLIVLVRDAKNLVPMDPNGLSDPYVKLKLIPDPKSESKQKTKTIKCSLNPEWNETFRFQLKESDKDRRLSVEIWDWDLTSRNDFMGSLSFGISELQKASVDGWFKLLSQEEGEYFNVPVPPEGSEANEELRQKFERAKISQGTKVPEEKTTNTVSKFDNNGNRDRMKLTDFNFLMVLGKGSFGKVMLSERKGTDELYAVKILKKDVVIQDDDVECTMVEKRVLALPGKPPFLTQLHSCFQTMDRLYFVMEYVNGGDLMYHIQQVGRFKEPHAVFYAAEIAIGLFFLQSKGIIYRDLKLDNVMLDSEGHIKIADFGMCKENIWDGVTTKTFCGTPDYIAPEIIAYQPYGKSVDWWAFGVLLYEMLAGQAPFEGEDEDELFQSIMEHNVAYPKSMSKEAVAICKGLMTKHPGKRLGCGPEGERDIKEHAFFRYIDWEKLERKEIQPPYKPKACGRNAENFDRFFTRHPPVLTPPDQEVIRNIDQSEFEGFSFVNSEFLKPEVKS

Compound | IC50 ([1]; IC50 PKC δ) [µM] | IC50 ([2]; IC50 PKC α) [µM] | IC50 ([3]; IC50 PKC βII) [µM] | IC50 ([4]; IC50 PKC .zeta.) [µM] | IC50 ([1]; read-out: IC50 PKC δ) [µM] | IC50 ([2]; read-out: IC50 PKC α) [µM] | IC50 ([3]; read-out: IC50 PKC βII) [µM] | IC50 ([4]; read-out: IC50 PKC .zeta.) [µM]
O=C1C(Nc2ccc(S(=O)(=O)NCCNc3ccc([N+](=O)[O-])cn3)cc2)=CC(=Nc2ccc(S(=O)(=O)NCCNc3ccc([N+](=O)[O-])cn3)cc2)c2ccccc21 [Compound 3ac] | 147 | 85 | 89 | > 150 | – | – | – | –
Cc1cc(C)nc(NS(=O)(=O)c2cccc(N=C3C=C(Nc4cccc(S(=O)(=O)Nc5cc(C)cc(C)n5)c4)C(=O)c4ccccc43)c2)c1 [Compound 3ae] | – | – | – | – | 85 | 31 | 52 | > 150
COc1cc(NS(=O)(=O)c2ccc(N=C3C=C(Nc4ccc(S(=O)(=O)Nc5cc(OC)cc(OC)c5)cc4)C(=O)c4ccccc43)cc2)cc(OC)c1 [Compound 3af] | – | – | – | – | > 150 | 102 | 143 | > 150
Cc1cc(C)nc(NS(=O)(=O)c2cc(N=C3C=C(Nc4ccc(C)c(S(=O)(=O)Nc5cc(C)cc(C)n5)c4)C(=O)c4ccccc43)ccc2C)c1 [Compound 3ag] | – | – | – | – | 30 | 7 | 17 | 28
Cc1cc(C)nc(NC(=O)c2ccc(N=C3C=C(Nc4ccc(C(=O)Nc5cc(C)cc(C)n5)cc4)C(=O)c4ccccc43)cc2)c1 [Compound 3ah] | – | – | – | – | > 150 | 136 | 145 | > 150
Cc1cc(C)nc(NC(=O)c2ccc(N=C3C=C(Nc4ccc(C(=O)Nc5nc(C)cc(C)n5)cc4)C(=O)c4ccccc43)cc2)n1 [Compound 3ai] | – | – | – | – | > 150 | 56 | 101 | > 150
Cc1noc(NS(=O)(=O)c2ccc(N=C3C=C(Nc4ccc(S(=O)(=O)Nc5onc(C)c5C)cc4)C(=O)c4ccccc43)cc2)c1C [Compound 3b] | – | – | – | – | 31 | 30 | 29 | –
Cc1cc(C)nc(NS(=O)(=O)c2ccc(N=C3C=C(Nc4ccc(S(=O)(=O)Nc5nc(C)cc(C)n5)cc4)C(=O)c4ccccc43)cc2)n1 [Compound 3c] | – | – | – | – | 72 | 17 | 7 | –
Cc1cc(NS(=O)(=O)c2ccc(N=C3C=C(Nc4ccc(S(=O)(=O)Nc5cc(C)nc(C)n5)cc4)C(=O)c4ccccc43)cc2)nc(C)n1 [Compound 3d] | – | – | – | – | 95 | 37 | 31 | –
Cc1nnc(NS(=O)(=O)c2ccc(N=C3C=C(Nc4ccc(S(=O)(=O)Nc5nnc(C)s5)cc4)C(=O)c4ccccc43)cc2)s1 [Compound 3e] | – | – | – | – | 43 | 17 | 14 | –
Cc1ccnc(NS(=O)(=O)c2ccc(N=C3C=C(Nc4ccc(S(=O)(=O)Nc5nccc(C)n5)cc4)C(=O)c4ccccc43)cc2)n1 [Compound 3f] | – | – | – | – | 86 | 28 | 23 | –
COc1cc(NS(=O)(=O)c2ccc(N=C3C=C(Nc4ccc(S(=O)(=O)Nc5cc(OC)nc(OC)n5)cc4)C(=O)c4ccccc43)cc2)nc(OC)n1 [Compound 3g] | – | – | – | – | 40 | 32 | 25 | –
COc1cnc(NS(=O)(=O)c2ccc(N=C3C=C(Nc4ccc(S(=O)(=O)Nc5ncc(OC)cn5)cc4)C(=O)c4ccccc43)cc2)nc1 [Compound 3h] | – | – | – | – | 58 | 105 | 53 | –
O=C1C(Nc2ccc(S(=O)(=O)Nc3ccccn3)cc2)=CC(=Nc2ccc(S(=O)(=O)Nc3ccccn3)cc2)c2ccccc21 [Compound 3i] | – | – | – | – | 37 | 23 | 26 | > 150
COc1ccc(NS(=O)(=O)c2ccc(N=C3C=C(Nc4ccc(S(=O)(=O)Nc5ccc(OC)nn5)cc4)C(=O)c4ccccc43)cc2)nn1 [Compound 3j] | – | – | – | – | 17 | 67 | 45 | > 150
O=C1C(Nc2ccc(S(=O)(=O)Nc3ccc(Cl)nn3)cc2)=CC(=Nc2ccc(S(=O)(=O)Nc3ccc(Cl)nn3)cc2)c2ccccc21 [Compound 3l] | – | – | – | – | 78 | 27 | 24 | 28
O=C1C(Nc2ccc(S(=O)(=O)Nc3cnc4ccccc4n3)cc2)=CC(=Nc2ccc(S(=O)(=O)Nc3cnc4ccccc4n3)cc2)c2ccccc21 [Compound 3m] | – | – | – | – | 122 | 8 | 22 | 28
O=C1C(Nc2ccc(S(=O)(=O)NCc3ccccn3)cc2)=CC(=Nc2ccc(S(=O)(=O)NCc3ccccn3)cc2)c2ccccc21 [Compound 3n] | – | – | – | – | > 150 | 75 | 141 | > 150
Cc1cc(NS(=O)(=O)c2ccc(N=C3C=C(Nc4ccc(S(=O)(=O)Nc5cc(C)on5)cc4)C(=O)c4ccccc43)cc2)no1 [Compound 6a] | – | – | – | – | 34 | – | 24 | –
COc1cc(NS(=O)(=O)c2ccc(N=C3C=C(Nc4ccc(S(=O)(=O)Nc5cc(OC)cc(OC)c5)cc4)C(=O)c4ccccc43)cc2)cc(OC)c1 [Compound 6af] | – | – | – | – | – | 113 | > 150 | –
Cc1cc(C)nc(NS(=O)(=O)c2cc(N=C3C=C(Nc4ccc(C)c(S(=O)(=O)Nc5cc(C)cc(C)n5)c4)C(=O)c4ccccc43)ccc2C)c1 [Compound 6ag] | – | – | – | – | 49 | 22 | 28 | > 150
Cc1cc(C)nc(NS(=O)(=O)c2ccc(N=C3C=C(Nc4ccc(S(=O)(=O)Nc5nc(C)cc(C)n5)cc4)C(=O)c4ccccc43)cc2)n1 [Compound 6c] | – | – | – | – | 10 | 7 | 14 | 132
Cc1cc(NS(=O)(=O)c2ccc(N=C3C=C(Nc4ccc(S(=O)(=O)Nc5cc(C)nc(C)n5)cc4)C(=O)c4ccccc43)cc2)nc(C)n1 [Compound 6d] | – | – | – | – | 47 | 41 | 39 | –
Cc1nnc(NS(=O)(=O)c2ccc(N=C3C=C(Nc4ccc(S(=O)(=O)Nc5nnc(C)s5)cc4)C(=O)c4ccccc43)cc2)s1 [Compound 6e] | – | – | – | – | 35 | 109 | 24 | 20
Cc1ccnc(NS(=O)(=O)c2ccc(N=C3C=C(Nc4ccc(S(=O)(=O)Nc5nccc(C)n5)cc4)C(=O)c4ccccc43)cc2)n1 [Compound 6f] | – | – | – | – | 43 | 24 | – | 35
O=C1C(Nc2ccc(S(=O)(=O)Nc3ccccn3)cc2)=CC(=Nc2ccc(S(=O)(=O)Nc3ccccn3)cc2)c2ccccc21 [Compound 6i] | – | – | – | – | 120 | 14 | 47 | –
O=C1C(Nc2ccc(S(=O)(=O)NCc3ccccn3)cc2)=CC(=Nc2ccc(S(=O)(=O)NCc3ccccn3)cc2)c2ccccc21 [Compound 6n] | – | – | – | – | – | 134 | > 150 | –

Source: patent US5292737A, “N,N'-bis(sulfonamido)-2-amino-4-iminonaphthalen-1-ones and N,N'-bis(amido)-2-amino-4-iminonaphthalen-1-ones” (Sphinx Pharmaceuticals Corporation, priority 1992, dated 1994)
